Consider six compounds from the supplement of paper PMC5908809.

What all share (assay): relative IC50 (inflection point of fitted viability curve, relative to fitted max inhibition); higher = less sensitive
Common to all, as to details: 72 h

The test system of one assay is DERL-7 (IL-2 2.5 ng/mL). The method, then: (§1)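 Drug sensitivity and resistance testing: 5 concentrations over a 10,000-fold range, 72 h at 37 °C, viability by CellTiter-Glo normalised to DMSO and benzethonium chloride controls. IC50 is the inflection point of a logistic fit (min fixed at 0, max fitted), so it is relative to the fitted maximal inhibition. Kept only where fitted max inhibition is at least 50%.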

A further assay has as its system YT (IL-2 2.5 ng/mL). The method, then:
as §1

In assay [1] the test system is normal primary NK cells, pool 1 (3 donors) (IL-2 2.5 ng/mL). The method, then:
as §1

The subject of the next assay is NK-92 (IL-2 2.5 ng/mL). The method, then:
as §1

The test system of assay [2] is normal primary NK cells, pool 1 (3 donors), resting (IL-2 0 ng/mL). The method, then:
as §1

Another assay relates to KHYG-1 (IL-2 2.5 ng/mL). The method, then: as §1
The next assay has as its system KAI3 (IL-2 2.5 ng/mL). The method, then: as §1
The next assay concerns NK-YS (IL-2 2.5 ng/mL). The method, then:
as §1

The subject of another assay is SNK-6 (IL-2 2.5 ng/mL). The method, then:
as §1

The test system of assay [3] is normal primary NK cells, pool 3 (3 donors) (IL-2 2.5 ng/mL). The method, then:
as §1

Assay [4] relates to normal primary NK cells, pool 2 (3 donors) (IL-2 2.5 ng/mL). The method, then: as §1
The subject of a further assay is NKL (IL-2 2.5 ng/mL). The method, then:
as §1

Another assay has as its system IMC-1 (IL-2 20 ng/mL). The method, then:
as §1

One may read the relative IC50 as the concentration at the midpoint between the plateaus of the fitted inhibition curve. Consider `CC(=O)NCC(=O)N1[C@@H]2CC[C@H]1c1ccc(Nc3ncc(C(F)(F)F)c(NC4CCC4)n3)cc12`, for which the “relative IC50” value in the assay with DERL-7 (IL-2 2.5 ng/mL) came out at 54.3 nM; with YT (IL-2 2.5 ng/mL) it was 439 nM; in assay [1], 975 nM; in the assay on NK-92 (IL-2 2.5 ng/mL), 117 nM; in [2] it was 4.4 µM; with KHYG-1 (IL-2 2.5 ng/mL), 40.8 nM. In addition, the “relative IC50” value in the assay on KAI3 (IL-2 2.5 ng/mL) stood at 95 nM; with NK-YS (IL-2 2.5 ng/mL), 111 nM; in the assay with SNK-6 (IL-2 2.5 ng/mL), 20 nM; in [3], 1310 nM; in [4] it was 766 nM; with NKL (IL-2 2.5 ng/mL), 101 nM. The “relative IC50” value in the assay with IMC-1 (IL-2 20 ng/mL) came to 91.9 nM.
For the compound `CN(c1ccccc1CNc1nc(Nc2ccc3c(c2)CC(=O)N3)ncc1C(F)(F)F)S(C)(=O)=O`, the “relative IC50” value in the assay with DERL-7 (IL-2 2.5 ng/mL) is 609 nM; in the assay with YT (IL-2 2.5 ng/mL), 1470 nM; in assay [1] it was 1130 nM; with NK-92 (IL-2 2.5 ng/mL), 1710 nM; in assay [2] it was 4.29 µM; with KHYG-1 (IL-2 2.5 ng/mL), 553 nM. The “relative IC50” value was 1380 nM in the assay on KAI3 (IL-2 2.5 ng/mL); 1030 nM with NK-YS (IL-2 2.5 ng/mL); 1600 nM in the assay with SNK-6 (IL-2 2.5 ng/mL); 1950 nM in assay [3]; 1720 nM in assay [4]; 715 nM in the assay with NKL (IL-2 2.5 ng/mL). Moreover, the “relative IC50” value with IMC-1 (IL-2 20 ng/mL) was 1130 nM.
`CN(c1ncccc1CNc1nc(Nc2ccc3c(c2)CC(=O)N3)ncc1C(F)(F)F)S(C)(=O)=O`: the “relative IC50” value was determined as 2000 nM with DERL-7 (IL-2 2.5 ng/mL); 1530 nM in the assay on YT (IL-2 2.5 ng/mL); 2320 nM in assay [1]; 3040 nM in the assay with NK-92 (IL-2 2.5 ng/mL); 4.77 µM in [2]; 1090 nM in the assay on KHYG-1 (IL-2 2.5 ng/mL). In addition, the “relative IC50” value in the assay on KAI3 (IL-2 2.5 ng/mL) is 1930 nM; in the assay on NK-YS (IL-2 2.5 ng/mL) it was 1310 nM; with SNK-6 (IL-2 2.5 ng/mL), 2870 nM; in [3] it was 3740 nM; in assay [4] it was 3440 nM; with NKL (IL-2 2.5 ng/mL), 1540 nM. In the assay with IMC-1 (IL-2 20 ng/mL), the “relative IC50” value stood at 2960 nM.
Regarding `O=C1NC(=O)/C(=C/c2ccc3nccc(-c4ccncc4)c3c2)S1`, the “relative IC50” value in the assay with DERL-7 (IL-2 2.5 ng/mL) was 543 nM; in the assay with YT (IL-2 2.5 ng/mL), 529 nM; in [1], 749 nM; in the assay on NK-92 (IL-2 2.5 ng/mL), 1200 nM; in [2], 0.116 µM; in the assay on KHYG-1 (IL-2 2.5 ng/mL), 681 nM. Further, the “relative IC50” value worked out at 846 nM with KAI3 (IL-2 2.5 ng/mL); 810 nM with NK-YS (IL-2 2.5 ng/mL); 1100 nM in the assay with SNK-6 (IL-2 2.5 ng/mL); 1650 nM in assay [3]; 1250 nM in assay [4]; 644 nM in the assay on NKL (IL-2 2.5 ng/mL).
Consider `O=c1cc(N2CCOCC2)oc2c(-c3ccccc3)cccc12`, for which the “relative IC50” value in the assay with DERL-7 (IL-2 2.5 ng/mL) came out at 5890 nM; in the assay with YT (IL-2 2.5 ng/mL), 8330 nM; in assay [1], 13400 nM; in the assay with NK-92 (IL-2 2.5 ng/mL), 12300 nM; in assay [2], 6.67 µM; in the assay on KHYG-1 (IL-2 2.5 ng/mL) it was 13600 nM. Also, the “relative IC50” value was 11500 nM in the assay with KAI3 (IL-2 2.5 ng/mL); 9060 nM in the assay with NK-YS (IL-2 2.5 ng/mL); 4830 nM in the assay with SNK-6 (IL-2 2.5 ng/mL); 16800 nM in assay [3]; 11700 nM in assay [4]; 5080 nM in the assay on NKL (IL-2 2.5 ng/mL). Also, the “relative IC50” value in the assay with IMC-1 (IL-2 20 ng/mL) was found to be 35200 nM.
Take `COc1ccc(C[C@H](NC(=O)[C@H](C)NC(=O)CN2CCOCC2)C(=O)N[C@@H](Cc2ccccc2)C(=O)C2(C)CO2)cc1` (stereo in doubt) [ONX-0914]: the “relative IC50” value in the assay with DERL-7 (IL-2 2.5 ng/mL) worked out at 18.7 nM; in the assay on YT (IL-2 2.5 ng/mL), 64.7 nM; in assay [1] it was 30.6 nM; with NK-92 (IL-2 2.5 ng/mL) it was 24.4 nM; in assay [2], 0.0201 µM; in the assay with KHYG-1 (IL-2 2.5 ng/mL) it was 142 nM. Also, the “relative IC50” value in the assay with KAI3 (IL-2 2.5 ng/mL) came to 18.1 nM; with NK-YS (IL-2 2.5 ng/mL), 38.1 nM; in the assay on SNK-6 (IL-2 2.5 ng/mL), 62.6 nM; in [3], 61.8 nM; in assay [4], 27.4 nM; with NKL (IL-2 2.5 ng/mL) it was 29 nM. For the same compound, in the assay with IMC-1 (IL-2 20 ng/mL), the “relative IC50” value was found to be 158 nM.
